Values quoted from earlier work as cited in US7083803B2, “Ocular solutions” (Advanced Ocular Systems Limited, priority 2003, dated 2006).

Tests used:
[1] = administered systemically

With `C=CC[C@@H]1/C=C(\C)C[C@H](C)C[C@H](OC)[C@H]2O[C@@](O)(C(=O)C(=O)N3CCCC[C@H]3C(=O)O[C@H](/C(C)=C/[C@@H]3CC[C@@H](O)[C@H](OC)C3)[C@H](C)[C@@H](O)CC1=O)[C@H](C)C[C@@H]2OC` [Tacrolimus, tacrolimus] as the compound, how does the solubility in chloroform (chloroform) read?
The solubility in chloroform was “very soluble”.

What about the solubility in ethanol (ethanol) of the same compound?
Its solubility in ethanol is “freely soluble”.

What about the solubility in methanol (methanol) of the same compound?
The solubility in methanol was “very soluble”.

And the solubility in water (water)?
The solubility in water was “practically insoluble”.

What about the local tolerability (atopic dermatitis; topical administration) of the same compound?
The local tolerability was “well tolerated locally”.

What about the “adverse effects, treated versus control groups” value (atopic dermatitis; topical administration for dermatoses at concentrations up to 0.3%) of the same compound?
Its value is “no significant difference”.

What about the “clinical improvement in atopic dermatitis” value (atopic dermatitis; topical administration, doses 0.03%–0.3%, after 2–3 weeks treatment) of the same compound?
The value was “significant clinical improvement”.

What about the “renal and hepatic toxicity” value [1] of the same compound?
Its value is “significant renal and hepatic toxicity”.
